# Laboratory results from ChEMBL document CHEMBL3885881, “DrugMatrix”.
# Species on record: Rattus norvegicus
# Experiment: DrugMatrix - Regimen: Daily Repeat
# Type: toxicity, organism-based, Sprague-Dawley
# Set-up: regimen Daily Repeat, gender Male, age 6-8 weeks
# Details: in vivo, iv, vehicle 100 % SALINE; for ABSOLUTE BASOPHIL / ABSOLUTE EOSINOPHIL / ABSOLUTE LYMPHOCYTE / ABSOLUTE MONOCYTE / ABSOLUTE SEGMENTED NEUTROPHIL / BASOPHIL / EOSINOPHIL / ERYTHROCYTE COUNT / HEMATOCRIT / HEMOGLOBIN / LEUKOCYTE COUNT / LYMPHOCYTE / MEAN CORPUSCULAR HEMOGLOBIN / MEAN CORPUSCULAR HEMOGLOBIN CONCENTRATION / MEAN CORPUSCULAR VOLUME / MONOCYTE / NEUTROPHIL / NUCLEATED RED BLOOD CELLS / PLATELET COUNT: tissue Blood; for ALANINE AMINOTRANSFERASE / ALBUMIN / ALKALINE PHOSPHATASE / ASPARTATE AMINOTRANSFERASE / BLOOD UREA NITROGEN / CARBON DIOXIDE / CHLORIDE / CHOLESTEROL / CREATINE PHOSPHOKINASE / CREATININE / GLUCOSE / LACTATE DEHYDROGENASE / LIPASE / PHOSPHORUS / POTASSIUM / SODIUM / TOTAL BILIRUBIN / TOTAL PROTEIN / URIC ACID: tissue Plasma
# [1] = 27 mg/kg, 72 h, dose level High, time 3 day
# [2] = 27 mg/kg, 120 h, dose level High, time 5 day
# [3] = […], 72 h, dose 2.7 mg/Kg, dose level Low, time 3 day
# [4] = […], 120 h, dose 2.7 mg/Kg, dose level Low, time 5 day
smiles,measurement,setting,value
COC(=O)CCc1ccc(OCC(O)CNC(C)C)cc1 (configuration not stated) [ESMOLOL],ABSOLUTE BASOPHIL,[1],0 CELLS/uL
same,ABSOLUTE EOSINOPHIL,[1],31.33 CELLS/uL
same,ABSOLUTE LYMPHOCYTE,[1],10926.67 CELLS/uL
same,ABSOLUTE MONOCYTE,[1],68.67 CELLS/uL
same,ABSOLUTE SEGMENTED NEUTROPHIL,[1],673.33 CELLS/uL
same,BASOPHIL,[1],0%
same,EOSINOPHIL,[1],0.33%
same,ERYTHROCYTE COUNT,[1],5.92 x10E6/uL
same,HEMATOCRIT,[1],37.53%
same,HEMOGLOBIN,[1],14.47 G/DL
same,LEUKOCYTE COUNT,[1],11.7 x10E3/uL
same,LYMPHOCYTE,[1],92.67%
same,MEAN CORPUSCULAR HEMOGLOBIN,[1],24.37 pg
same,MEAN CORPUSCULAR HEMOGLOBIN CONCENTRATION,[1],38.63 G/DL
same,MEAN CORPUSCULAR VOLUME,[1],63.03 fL
same,MONOCYTE,[1],0.67%
same,NEUTROPHIL,[1],6.33%
same,NUCLEATED RED BLOOD CELLS,[1],0 /100WBC
same,PLATELET COUNT,[1],1320 x10E3/uL
same,ALANINE AMINOTRANSFERASE,[1],71.33 u/L
same,ALBUMIN,[1],4.1 G/DL
same,ALKALINE PHOSPHATASE,[1],456.33 u/L
same,ASPARTATE AMINOTRANSFERASE,[1],161 u/L
same,BLOOD UREA NITROGEN,[1],16.67 mg/dL
same,CARBON DIOXIDE,[1],28.67 mmol/L
same,CHLORIDE,[1],100.33 MEQ/L
same,CHOLESTEROL,[1],75.67 mg/dL
same,CREATINE PHOSPHOKINASE,[1],1751 u/L
same,CREATININE,[1],0.23 mg/dL
same,GLUCOSE,[1],225 mg/dL
same,LACTATE DEHYDROGENASE,[1],862 u/L
same,LIPASE,[1],12.33 u/L
same,PHOSPHORUS,[1],14.17 mg/dL
same,POTASSIUM,[1],8.56 MEQ/L
same,SODIUM,[1],142.57 MEQ/L
same,TOTAL BILIRUBIN,[1],0.4 mg/dL
same,TOTAL PROTEIN,[1],5.8 G/DL
same,URIC ACID,[1],4.13 mg/dL
same,ABSOLUTE BASOPHIL,[2],0 CELLS/uL
same,ABSOLUTE EOSINOPHIL,[2],0 CELLS/uL
same,ABSOLUTE LYMPHOCYTE,[2],16580.67 CELLS/uL
same,ABSOLUTE MONOCYTE,[2],300 CELLS/uL
same,ABSOLUTE SEGMENTED NEUTROPHIL,[2],1652.67 CELLS/uL
same,BASOPHIL,[2],0%
same,EOSINOPHIL,[2],0%
same,ERYTHROCYTE COUNT,[2],5.69 x10E6/uL
same,HEMATOCRIT,[2],36.33%
same,HEMOGLOBIN,[2],14.23 G/DL
same,LEUKOCYTE COUNT,[2],18.53 x10E3/uL
same,LYMPHOCYTE,[2],89.33%
same,MEAN CORPUSCULAR HEMOGLOBIN,[2],25 pg
same,MEAN CORPUSCULAR HEMOGLOBIN CONCENTRATION,[2],39.2 G/DL
same,MEAN CORPUSCULAR VOLUME,[2],63.8 fL
same,MONOCYTE,[2],1.67%
same,NEUTROPHIL,[2],9%
same,NUCLEATED RED BLOOD CELLS,[2],0 /100WBC
same,PLATELET COUNT,[2],1133.67 x10E3/uL
same,ALANINE AMINOTRANSFERASE,[2],63.33 u/L
same,ALBUMIN,[2],4.27 G/DL
same,ALKALINE PHOSPHATASE,[2],363.67 u/L
same,ASPARTATE AMINOTRANSFERASE,[2],126 u/L
same,BLOOD UREA NITROGEN,[2],15.33 mg/dL
same,CARBON DIOXIDE,[2],27.33 mmol/L
same,CHLORIDE,[2],99.67 MEQ/L
same,CHOLESTEROL,[2],70.33 mg/dL
same,CREATINE PHOSPHOKINASE,[2],284 u/L
same,CREATININE,[2],0.22 mg/dL
same,GLUCOSE,[2],147.33 mg/dL
same,LACTATE DEHYDROGENASE,[2],238.67 u/L
same,LIPASE,[2],9.33 u/L
same,PHOSPHORUS,[2],11 mg/dL
same,POTASSIUM,[2],6.94 MEQ/L
same,SODIUM,[2],142.83 MEQ/L
same,TOTAL BILIRUBIN,[2],0.17 mg/dL
same,TOTAL PROTEIN,[2],6.3 G/DL
same,URIC ACID,[2],1.47 mg/dL
same,ABSOLUTE BASOPHIL,[3],0 CELLS/uL
same,ABSOLUTE EOSINOPHIL,[3],0 CELLS/uL
same,ABSOLUTE LYMPHOCYTE,[3],13243.33 CELLS/uL
same,ABSOLUTE MONOCYTE,[3],97.67 CELLS/uL
same,ABSOLUTE SEGMENTED NEUTROPHIL,[3],1325.67 CELLS/uL
same,BASOPHIL,[3],0%
same,EOSINOPHIL,[3],0%
same,ERYTHROCYTE COUNT,[3],5.56 x10E6/uL
same,HEMATOCRIT,[3],35.9%
same,HEMOGLOBIN,[3],14.23 G/DL
same,LEUKOCYTE COUNT,[3],14.67 x10E3/uL
same,LYMPHOCYTE,[3],90.33%
same,MEAN CORPUSCULAR HEMOGLOBIN,[3],25.77 pg
same,MEAN CORPUSCULAR HEMOGLOBIN CONCENTRATION,[3],39.73 G/DL
same,MEAN CORPUSCULAR VOLUME,[3],64.73 fL
same,MONOCYTE,[3],0.67%
same,NEUTROPHIL,[3],9%
same,NUCLEATED RED BLOOD CELLS,[3],0 /100WBC
same,PLATELET COUNT,[3],1093.67 x10E3/uL
same,ALANINE AMINOTRANSFERASE,[3],50 u/L
same,ALBUMIN,[3],4.43 G/DL
same,ALKALINE PHOSPHATASE,[3],440 u/L
same,ASPARTATE AMINOTRANSFERASE,[3],82 u/L
same,BLOOD UREA NITROGEN,[3],17.33 mg/dL
same,CARBON DIOXIDE,[3],28.67 mmol/L
same,CHLORIDE,[3],100.33 MEQ/L
same,CHOLESTEROL,[3],69.33 mg/dL
same,CREATINE PHOSPHOKINASE,[3],423.67 u/L
same,CREATININE,[3],0.22 mg/dL
same,GLUCOSE,[3],193 mg/dL
same,LACTATE DEHYDROGENASE,[3],155 u/L
same,LIPASE,[3],9 u/L
same,PHOSPHORUS,[3],12.67 mg/dL
same,POTASSIUM,[3],7.24 MEQ/L
same,SODIUM,[3],143.23 MEQ/L
same,TOTAL BILIRUBIN,[3],0.23 mg/dL
same,TOTAL PROTEIN,[3],5.97 G/DL
same,URIC ACID,[3],2.6 mg/dL
same,ABSOLUTE BASOPHIL,[4],0 CELLS/uL
same,ABSOLUTE EOSINOPHIL,[4],0 CELLS/uL
same,ABSOLUTE LYMPHOCYTE,[4],9825 CELLS/uL
same,ABSOLUTE MONOCYTE,[4],143 CELLS/uL
same,ABSOLUTE SEGMENTED NEUTROPHIL,[4],698.67 CELLS/uL
same,BASOPHIL,[4],0%
same,EOSINOPHIL,[4],0%
same,ERYTHROCYTE COUNT,[4],6.36 x10E6/uL
same,HEMATOCRIT,[4],40.2%
same,HEMOGLOBIN,[4],15.63 G/DL
same,LEUKOCYTE COUNT,[4],10.67 x10E3/uL
same,LYMPHOCYTE,[4],92%
same,MEAN CORPUSCULAR HEMOGLOBIN,[4],24.57 pg
same,MEAN CORPUSCULAR HEMOGLOBIN CONCENTRATION,[4],38.87 G/DL
same,MEAN CORPUSCULAR VOLUME,[4],63.2 fL
same,MONOCYTE,[4],1.33%
same,NEUTROPHIL,[4],6.67%
same,NUCLEATED RED BLOOD CELLS,[4],0.33 /100WBC
same,PLATELET COUNT,[4],1330 x10E3/uL
same,ALANINE AMINOTRANSFERASE,[4],35.67 u/L
same,ALBUMIN,[4],4.67 G/DL
same,ALKALINE PHOSPHATASE,[4],337 u/L
same,ASPARTATE AMINOTRANSFERASE,[4],68.67 u/L
same,BLOOD UREA NITROGEN,[4],21.67 mg/dL
same,CARBON DIOXIDE,[4],29.67 mmol/L
same,CHLORIDE,[4],103 MEQ/L
same,CHOLESTEROL,[4],101 mg/dL
same,CREATINE PHOSPHOKINASE,[4],276 u/L
same,CREATININE,[4],0.21 mg/dL
same,GLUCOSE,[4],155 mg/dL
same,LACTATE DEHYDROGENASE,[4],214.33 u/L
same,LIPASE,[4],10 u/L
same,PHOSPHORUS,[4],12.37 mg/dL
same,POTASSIUM,[4],6.64 MEQ/L
same,SODIUM,[4],148.6 MEQ/L
same,TOTAL BILIRUBIN,[4],0.23 mg/dL
same,TOTAL PROTEIN,[4],6.97 G/DL
same,URIC ACID,[4],2 mg/dL
